The source of these data is patent publication US7629135B2, “Toll-like receptor agonists and antagonists and methods of use thereof” (The Board of Trustees of the University of Illinois, priority 2006, dated 2009).

The target of assay [1] is T1, TLR2:Fc fusion protein (Homo sapiens, UniProt O60603).
T1 construct: measured in an ELISA-like assay using a TLR2 extracellular domain:Fc fragment fusion protein; made in house; host or cells: CHO cells (pFuse-Fc vector, InvivoGen), purified from culture supernatant on protein A
T1 sequence (O60603 21-588 limits assumed): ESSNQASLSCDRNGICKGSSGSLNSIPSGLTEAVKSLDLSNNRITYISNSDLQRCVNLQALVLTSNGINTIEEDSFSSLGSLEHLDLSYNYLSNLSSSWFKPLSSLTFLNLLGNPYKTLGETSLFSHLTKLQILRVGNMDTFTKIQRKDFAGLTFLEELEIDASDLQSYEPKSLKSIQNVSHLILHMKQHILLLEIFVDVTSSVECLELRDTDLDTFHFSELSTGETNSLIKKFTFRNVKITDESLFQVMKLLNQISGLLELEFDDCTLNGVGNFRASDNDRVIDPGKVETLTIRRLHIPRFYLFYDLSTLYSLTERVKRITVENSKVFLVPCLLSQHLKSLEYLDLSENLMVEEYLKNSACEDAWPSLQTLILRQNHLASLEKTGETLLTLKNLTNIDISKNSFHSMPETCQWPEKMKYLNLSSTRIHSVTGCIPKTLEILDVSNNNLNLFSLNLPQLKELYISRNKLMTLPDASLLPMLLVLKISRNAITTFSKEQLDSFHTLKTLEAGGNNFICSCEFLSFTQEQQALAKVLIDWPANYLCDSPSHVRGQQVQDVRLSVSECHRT
The assay can be described thus: SAA-TLR2 interaction, ELISA-like binding assay. As to conditions: 0.0625 to 8 μg/ml ligand coated, 2 μg/ml TLR2:Fc. The text has this: Another example of a method for screening antagonists that disrupt the SAA/TLR2 interaction involves a binding assay that includes a TLR2 ectodomain (extracellular domain) fused to an Fc fragment of immunoglobulin (TLR2:Fc), such as the assay used in FIG. 9B. This assay is typically used as a follow-up or secondary assay to that assay described above. In other words, any compounds collected from the assay described above are subjected to the TLR2:Fc-based binding assay to confirm that the antagonistic effect is on the disruption of SAA-TLR2 binding. This method is generally carried out as follows and is also described in the Examples. A TLR2:Fc fusion protein is generated such that the N-terminal 588 amino acids of human TLR2 are fused in frame to the Fc portion of mouse IgG2a. The cDNA encoding for the resulting chimeric protein is cloned in pFuse-Fc vector (InvivoGen), and stably transfected into CHO cells. […] Absorbance at 450 nm is measured on a SpectraMax 340 plate reader (Molecular Devices).
Assays for SAA-TLR2 interaction: The TL2:Fc fusion protein was generated such that the N-terminal 588 amino acids of human TLR2 protein were fused in frame with the Fc portion of mouse IgG2a. […] Absorbance at 450 nm was measured on a SpectraMax 340 plate reader (Molecular Devices). […]

Assay [2] concerns TLR2-HeLa cells. Kind of assay: MAP kinase phosphorylation and IκBα degradation in TLR2-HeLa cells (Western blotting). The assay is classed as cell-based, human. The following applies: mock-transfected HeLa cells, 10 min; SAA 1 μM, Pam3CSK4 1 μg/ml. Here is the method:
FIG. 8 is a series of protein gels and corresponding Western blotting graphs showing that SAA-induced TLR2-dependent signaling in transfected cells. Serum-starved TLR2-HeLa and mock-transfected HeLa cells were stimulated with SAA (1 μM) or Pam3CSK4 (1 μg/ml) for the indicated time. The phosphorylation level of ERK1/2 (A), p38 (B) and JNK (C) was detected by Western blotting using antibodies recognizing the phosphorylated forms of the MAP kinases (blots). (D) The level of cytoplasmic IκB ? was detected by Western blotting using an anti-IκB ? antibody and the β-actin levels in the corresponding samples were shown as loading controls. […] A representative set of data, from 3 repeating experiments, is presented.
Background: In western blotting, separated proteins are transferred to a membrane and probed.

Consider Pam3CSK4 [reference compound], for which, in assay [1], the “binding to TLR2:Fc fusion protein” value is given as “directly bind to the ectodomain”. Besides, in assay [2], the “ERK1/2 phosphorylation in mock-transfected cells” value is given as “not”.
